In patent US20170312200A1, “AN AGENT FOR IMPROVING MITOCHONDRIAL FUNCTION” (SHOWA DENKO K.K., priority 2014, published 2017):

Legend:
Type in all cases: cell-based
[1] = test system: human skin fibroblasts NB1-RGB cells; test: Effect on mitochondrial function improvement (JC-1 red/green fluorescence, mitochondrial membrane potential); settings: aged cells (600 μM hydrogen peroxide), specimen 10 μM, 48 hours; relative value with normal cells as 1
Experimental: The effect on mitochondrial function improvement in human skin fibroblasts NB1-RGB cells was measured under the following conditions using a mitochondrial membrane potential as an index. By performing an operation for 4 days in which confluent NB1-RGB cells were cultured for one hour in a DMEM medium containing 10% fetal bovine serum and 600 μM hydrogen peroxide solution, cells induced of artificial aging by oxidation were prepared as aged cells. These aged cells and normal, unprocessed cells were prepared at a seeding density of 4,000 cells/cm^2 and cultured for 24 hours in the DMEM medium containing 10% fetal bovine serum. […] After changing a medium to new assay solution supplied in Assay Kit, a fluorescence intensity of the living cells was measured at an excitation wavelength of 520 to 570 nm and a fluorescence wavelength of 570 to 610 nm, and the dead cells at an excitation wavelength of 485 nm and a fluorescence wavelength of 535 nm. In order to evaluate the state of mitochondrial membrane potential, red fluorescence intensity and green fluorescence intensity of a cell group to be measured were measured, and values of red fluorescence intensity divided by green fluorescence intensity were calculated, and their relative values, with a measured value of the normal cells as 1, are shown in Table 3. […]

[2] = test system: human skin fibroblasts NB1-RGB cells; test: Effect on promoting elastin production (Elastin Assay Kit); settings: aged cells, 48 hours, normal cell = 1.00
Experimental: It is known that elastin is a fiber-like protein, which has a main function of crosslinking collagen, is present in the dermis of the skin, blood vessels, ligaments, and the like, and provides elasticity to the skin. The effect of a hydroxycitric acid derivative on elastin production was examined by the following method. The aged cells and normal, unprocessed cells which were produced in Example 1 were prepared at a seeding density of 4,000 cells/cm^2 and cultured for 24 hours in the DMEM medium containing 10% fetal bovine serum. The hydroxycitric acid derivatives according to the present invention which were dissolved in 50% ethanol to the final concentration of 0 μM (for a control), 0.01 μM, and 0.1 μM were added to the DMEM medium containing 10% fetal bovine serum, and culturing was performed for 48 hours. After that, cells were collected, elastin was extracted using Elastin Assay Kit manufactured by Biocolor Ltd., and an absorbance of the extracted solution was measured at a wavelength of 513 nm.

[3] = test system: human skin fibroblasts NB1-RGB cells; test: Measurement of cells in which apoptosis had been caused (JC-1 green fluorescence, mitochondrial membrane potential as index); settings: aged cells (600 μM hydrogen peroxide), specimen 10 μM, 48 hours; relative value with normal cells as 1
Experimental: The effect on mitochondrial function improvement in human skin fibroblasts NB1-RGB cells was measured under the following conditions using a mitochondrial membrane potential as an index. By performing an operation for 4 days in which confluent NB1-RGB cells were cultured for one hour in a DMEM medium containing 10% fetal bovine serum and 600 μM hydrogen peroxide solution, cells induced of artificial aging by oxidation were prepared as aged cells. These aged cells and normal, unprocessed cells were prepared at a seeding density of 4,000 cells/cm^2 and cultured for 24 hours in the DMEM medium containing 10% fetal bovine serum. […] After changing a medium to new assay solution supplied in Assay Kit, a fluorescence intensity of the living cells was measured at an excitation wavelength of 520 to 570 nm and a fluorescence wavelength of 570 to 610 nm, and the dead cells at an excitation wavelength of 485 nm and a fluorescence wavelength of 535 nm. In order to obtain a ratio of dead cells in which apoptosis had been caused, only the green fluorescence intensity of a cell group to be measured was measured, and relative values, with a measured value of the normal cells as 1, are shown in Table 2.

Compound | Relative fluorescence intensity (red fluorescence intensity divided by green fluorescence intensity; effect on mitochondrial function improvement) [1] | Relative absorbance (513 nm) (elastin production) ([2]; specimen 0.01 μM) | Relative absorbance (513 nm) (elastin production) ([2]; specimen 0.1 μM) | Relative fluorescence intensity (green fluorescence of dead cells in which apoptosis had been caused) [3]
CCCCCCCCCCCCCC(=O)OC(CC(=O)O)(C(=O)O)C(O)C(=O)O (centres unmarked) [Hydroxycitric acid-2-myristate] | 0.66 | 0.93 | 0.94 | 1.13
Hydroxycitric acid-2-palmitate | 0.72 | 1.11 | 1.06 | 1.04
